Test results taken from patent US11225504B2, “Functional polypeptide and its application thereof in preparing medicament for preventing and treating pulmonary fibrosis” (Guangdong Medical University, priority 2017, dated 2022).
Residues, ends and D or L forms follow the SMILES beside them.

Key:
[1] = tested on: human normal lung epithelial cell BEAS-2B; experiment: Growth effects on human normal lung epithelial cell BEAS-2B (FIG. 4); type: cell-based
[2] = tested on: bleomycin-induced pulmonary fibrosis; experiment: Prevention and treatment of pulmonary fibrosis IPF experiment (bleomycin-induced, mice); type: in vivo, C57 mice
Procedure: (1) Animals: SPF grade C57 mice, 22 g±2 g, 60 mice, females. The mice was divided into the following groups using the random digits table: the control group, the model group, the pirfenidone group (50 mg/kg), the EZY-1 polypeptide low dose group (0.25 mg/kg), the EZY-1 polypeptide medium dose group (0.5 mg/kg), the EZY-1 polypeptide high dose group (1.0 mg/kg), 10 animals per group. (3) After the mice were anesthetized by intraperitoneal injection of 1% sodium pentobarbital at a dose of 50 mg/kg, they are fixed to the operation console on their back. Their tongues were pulled out with tweezers to expose the trachea, and 5 mg/kg Bleomycin was slowly injected under a cold light source magnifying glass. Immediately after the injection, the operation console was erected and rotated for 3 minutes to evenly distribute the drug solution in the lungs. The control group was injected with an equal volume of isotonic saline in the same way as the previous method. After 10 days, the mice were intra-gastrically administered with 0.1 ml/10 g with drugs. The control group and the model group were intra-gastrically administered with an equal volume of isotonic saline. The other groups were intra-gastrically administered with the corresponding dose of the drug for 35 days, once a day. After 35 days of drug administration, the mice were anesthetized and sacrificed, and the two intact lung tissues were isolated and weighed. The same part of the right upper lobe was taken, fixed with 4% paraformaldehyde for 48 hours, and paraffin sections were generated for Hematoxylin-Eosin (HE) staining for histopathological observations. The same part of the […] was taken for the measurement of HYP content in the lung tissue. Plasma was collected for the measurement of T-SOD, MDA, and GSH-PX levels. Statistical analysis was performed using SPSS 17.0 software. Measurement data were expressed as mean±standard deviation (x±s). Comparison of the means in multiple samples was performed by one-way ANOVA. Comparison between groups was performed by t test, with P≤0.05 indicating statistically significant differences.

[3] = 50 mg/kg intragastric once a day for 35 days, bleomycin mice, mean ± SD

| SMILES | toxicity to normal cells (growth of BEAS-2B) [1] | GSH-PX (plasma) [2, 3] | HYP (lung tissue) [2, 3] | MDA (plasma) [2, 3] | T-SOD (plasma) [2, 3] | pathological changes of lung tissue (HE staining, FIG. 5) ([2]; EZY-1 low, medium and high dose (0.25, 0.5, 1.0 mg/kg), pirfenidone 50 mg/kg, 35 days) |
| --- | --- | --- | --- | --- | --- | --- |
| CC[C@H](C)[C@H](NC(=O)CNC(=O)[C@H](CC(N)=O)NC(=O)[C@H](Cc1ccc(O)cc1)NC(=O)[C@@H](NC(=O)[C@@H](NC(=O)[C@H](CS)NC(=O)[C@H](Cc1ccccc1)NC(=O)[C@H](CS)NC(=O)[C@H](C)NC(=O)CNC(=O)[C@@H](NC(=O)[C@@H](N)CCCNC(=N)N)[C@@H](C)O)C(C)C)[C@@H](C)CC)C(=O)N[C@@H](CC(C)C)C(=O)N[C@@H](Cc1ccc(O)cc1)C(=O)N1CCC[C@H]1C(=O)O [EZY-1 polypeptide, RTGACFCVIYNGILYP] (H-RTGACFCVIYNGILYP-OH) | low toxicity to normal cells | – | – | – | – | – |
| Cc1ccc(=O)n(-c2ccccc2)c1 [pirfenidone] | – | 672.92 ± 98.72 active unit | 48.36 ± 5.01 μg/g lung tissues Wet weight | 6.52 ± 0.71 nmal/mL | 156.05 ± 17.32 U/mL | reduce alveolar structural damage, reduce collagen fiber production, and inhibit the inflammatory cell infiltration |
